According to publication PMC3154333, “Specificity of RSG-1.2 Peptide Binding to RRE-IIB RNA Element of HIV-1 over Rev Peptide Is Mainly Enthalpic in Origin” (PLoS ONE, 2011):
Where “and” joins values, the source holds several entries; their conditions need not be identical. Identical values can stand only once. Entries after “also recorded” stand apart in the source; their conditions may differ.

Key:
RRE-IIB RNA [1] = experiment: Isothermal titration calorimetry (ITC) of peptide binding to RRE-IIB; parameters: species or system HIV-1; details: for N1 / N2: ITC stoichiometry; for N1 / ΔH1 (binding enthalpy ΔH) / TΔS1: first site; for N1 / N2 / ΔH1 (binding enthalpy ΔH) / Ka2 / TΔS2 / ΔH2 / TΔS1: two-site model; for N2 / Ka2 / TΔS2 / ΔH2: second (low affinity) site; for ΔH1 (binding enthalpy ΔH): 350 µM peptide into 10 µM RRE-IIB, corrected for heat of dilution, pH 7.5, 50 mM NaCl; for Ka1 / TΔS1: RSG-1.2 mutants; for Ka1: high affinity site, model for two set of binding sites, 10 mM sodium cacodylate, 0.1 mM EDTA, 50 mM NaCl, ± = SD of data from fitted curve; for TΔS1: derived from fits of ITC profiles
Experimental: (§1) Fluorescence labeled RNA having 2-Aminopurine (2-AP) at U72 position of RRE-IIB was obtained from Ocimum Biosolutions Ltd. Netherlands. All the stock solutions were prepared in Milli-Q water. Other reagents were commercially available and were of analytical grade quality and used without any further purification. All the experiments were performed using 10 mM sodium cacodylate buffer containing 0.1 mM EDTA and 50 mM NaCl at pH 7.5.
(§2) Isothermal titration calorimetry measurements were conducted at 25°C on a Microcal VP-ITC (Microcal, Inc.; Northampton MA). Titration of RRE-IIB with Rev as well as RSG-1.2 were done by injecting 4 µL aliquots of 350 µM peptide from a 250 µL rotating syringe (350 rpm) into an isothermal sample chamber containing 1.5 mL of 10 µM RRE-IIB solution. Each experiment of this type was accompanied by the corresponding control experiment in which 350 µM peptide were injected into a solution of buffer alone. The duration of each injection was 8 s and the delay between the injections was 300 s, the initial delay prior to the first injection was 200 s. Each injection generated a heat burst curve (microcalories/second vs. seconds) and the area under each curve was determined by integration [using origin version 7.0 software (Microcal, Inc.; Northampton, MA)] to obtain the measure of heat associated with that injection. The buffer corrected ITC profiles for the binding of Rev and RSG-1.2 were fit with a model for two set of binding site. The net enthalpy change for RRE-IIB stem loop interaction with Rev and RSG-1.2 were determined by subtraction of the heat of dilution.

RRE-IIB RNA [2] = experiment: CD spectroscopy of RRE-IIB with peptides; format: binding, HIV-1; details: 5 µM RNA, pH 7.5, 25°C
Experimental: Circular dichroism (CD) spectra were recorded on a Jasco spectropolarimeter (model J815, Japan) equipped with a thermoelectrically controlled cell holder. The cuvette used for acquiring spectra was of 1 cm in path length. CD spectra were recorded from 350 nm to 200 nm; with accumulation of 3 and averaged at 25°C. The buffer solution contained 10 mM sodium cacodylate buffer, 0.1 mM EDTA and 50 mM NaCl at pH 7.5. In a titration experiment RNA concentration was fixed at 5 µM and the peptides concentration varied from 0–25 µM.

RRE-IIB RNA [3] = experiment: Temperature dependent UV melting of RRE-IIB with peptides; format: binding, HIV-1; details: pH 7.5
Experimental: Temperature dependent UV melting experiments were carried out using a Cary 100 (Varian) Spectrophotometer equipped with thermoelectrically controlled cell holder. A quartz cell of 1cm path length was used for all absorbance studies. Temperature dependent absorption spectra were obtained at 260 nm with rate of 0.5°C/min. increase in temperature, from 40 to 95°C. In these experiments the concentration of RNA was kept 1 µM and peptide concentration was increased from 0–3 µM. The buffer solution contained 10 mM sodium cacodylate buffer, 0.1 mM EDTA and 50 mM NaCl at pH 7.5. For each optically detected transition, the melting temperature (Tm) was determined using previously described methods.

RRE-IIB RNA [4] = experiment: Temperature dependent ITC (heat capacity change); format: binding, HIV-1; details: ITC at 10, 20, 25 and 35°C, pH 7.5
Experimental: as §2
Heat capacity changes (ΔCp), that accompany the peptide binding to RNA can be determined by performing temperature dependent ITC experiments under same buffer conditions. […]

2-AP labeled RRE-IIB RNA = experiment: Fluorescence titration of 2-AP labeled RRE-IIB with peptides; format: binding, HIV-1; details: pH 7.5, 25°C
Experimental: as §1
Steady state fluorescence spectra were collected using Xe 900 lamp of Edinburgh instruments Spectrofluorometer equipped with thermoelectrically controlled cell holders. The excitation of the sample was done at 320 nm wavelength and fluorescence spectra were collected from 340 nm to 450 nm. The excitation as well as emission slit width were kept at 3 nm. A quartz cell of 1 cm path length, transparent from four sides, was used. All the experiments were conducted at 25°C. RNA concentration was fixed at 0.1 µM and the peptide concentration was varied from 0–0.3 µM. The buffer solution contained 10 mM sodium cacodylate buffer, 0.1 mM EDTA and 50 mM NaCl at pH 7.5 and 25°C. The changes in the fluorescence intensity at 370 nm were monitored as a function of increase in peptide concentration. For data analysis, the observed fluorescence intensity was considered as the sum of the weighted contributions from a peptide bound and an unbound RNA form. [drawing 1] (1)
Where F corresponds to the observed fluorescence intensity at each titrant concentration, F0 and Fb are the respective fluorescence intensities of initial and final states of titration, α is the mole fractions of RNA in bound form. Assuming 1∶1 stoichiometry for the interaction, it can be shown that: [drawing 2] (2)
Where Ka is the association constant, [R0] is the total RNA concentration and [Lt] is the added peptide concentration. From Equations (1) and (2), it can be shown that: [drawing 3] (3)
Where ΔF = F – F0 and ΔFmax = Fmax – F0
The free energy of binding was calculated from the standard relation ΔG = -RTlnKa where R is the universal gas constant and T is the absolute temperature in Kelvin.
Fluorescence spectroscopy is a useful tool for determining binding constants of two interacting partners. We employed this tool for determining binding affinity of Rev and RSG-1.2 with the RRE-IIB RNA stem loop structure. In order to carry out fluorescence titration, RRE-IIB RNA was fluorescently labeled by incorporating 2-Aminopurine (2-AP) at position U72. […] All the fluorescence titrations were performed using 10 mM sodium cacodylate buffer containing 0.1 mM EDTA and 50 mM NaCl at pH 7.5 and at 25°C. […] Normalized change in fluorescence intensity at 370 nm was plotted against molar concentration of peptide. […]

Row | Sequence | N1 (RRE-IIB RNA [1]; pH 7.5, 25°C) | N2 (RRE-IIB RNA [1]; pH 7.5, 25°C) | ΔH1 (binding enthalpy ΔH) (RRE-IIB RNA [1]; ITC, 25°C) | Ka1 (RRE-IIB RNA [1]; ITC, pH 7.5, 25°C) [M^−1 × 10^7] | Ka2 (RRE-IIB RNA [1]; ITC, pH 7.5, 25°C) [M^−1 × 10^5] | TΔS2 (RRE-IIB RNA [1]; ITC, pH 7.5, 25°C) [kcal/mol] | ΔH2 (RRE-IIB RNA [1]; ITC, pH 7.5, 25°C) [kcal/mol] | TΔS1 (RRE-IIB RNA [1]; pH 7.5, 25°C) [kcal/mol] | also measured
1 | DRRRRGSRPSGAERKRRRAAAA [R15K] | 1.6 | 1.6 | -8.7 ± 0.1 kcal/mol | 2.4±0.7 | 7.0±0.2 | 5.5 ± 0.1 | -2.4 ± 0.3 | 1.3 ± 0.2 | –
2 | DTRQARRNRRRRWRERQRAAAAR [Rev, minimal arginine rich Rev peptide of HIV-1 ([…])] | – | – | ≈ 0 kcal/mol and 0 kcal/mol | – | – | – | – | – | CD signal of RRE-IIB at 240 nm and 210 nm (RRE-IIB RNA [2]; peptide 0–25 µM (up to 5∶1), 10 mM sodium cacodylate, 50 mM NaCl, 0.1 mM EDTA): became more negative at 240 nm and 210 nm; CD signal of RRE-IIB at 265 nm (RRE-IIB RNA [2]; up to 5∶1 peptide): no significant change was observed at 265 nm; ΔTm (increase in Tm of RRE-IIB; Tm of RNA alone 67.3°C) (RRE-IIB RNA [3]; peptide to RNA molar ratio 1∶1, 1 µM RNA, 260 nm, 0.5°C/min, 10 mM sodium cacodylate, 50 mM NaCl, 0.1 mM EDTA): 1 °C; change in Tm at higher peptide ratios (RRE-IIB RNA [3]; ratios above 1∶1 (2∶1 and 3∶1), 1 µM RNA): negligible changes were observed; heat changes / enthalpy of binding (in words) (RRE-IIB RNA [1]; ITC, 25°C, pH 7.5): small; also recorded: almost zero enthalpy of interaction; also recorded: negligible enthalpy; TΔS1 (TΔS) (RRE-IIB RNA [1]; calculated by ΔG = ΔH − TΔS from fluorescence Ka and ITC ΔH (footnote c), pH 7.5, 25°C): 10.2±0.2 kcal/mol and 10.2±0.2 ^c kcal/mol; TΔS (RRE-IIB RNA [1]; calculated by ΔG = ΔH − TΔS, 25°C, pH 7.5): 10.2 ± 0.2 kcal/mol; thermodynamic driving force (RRE-IIB RNA [1]; from ΔH and TΔS, 25°C, pH 7.5): essentially entropically driven; also recorded: exclusively entropy driven; change in heat capacity (in words) (RRE-IIB RNA [4]): essentially no change in heat capacity; temperature dependence of binding enthalpy (RRE-IIB RNA [4]): does not show any change in enthalpy of binding; also recorded: no change in binding enthalpy; change in fluorescence intensity of 2-AP RRE-IIB (2-AP labeled RRE-IIB RNA; 0.1 µM RNA, 370 nm): fluorescence intensity increased upon addition of peptide; association constant Ka (2-AP labeled RRE-IIB RNA; 2-AP at U72, 0.1 µM RNA, 370 nm, 10 mM sodium cacodylate, 0.1 mM EDTA, 50 mM NaCl, fit with equation 3 (1∶1)): 3.1±0.4×10^7 M^−1; Ka1 (2-AP labeled RRE-IIB RNA; fluorescence binding studies (footnote b), 2-AP at U72, 0.1 µM RNA, peptide 0–0.3 µM, ex 320 nm/em 370 nm, 10 mM sodium cacodylate, 0.1 mM EDTA, 50 mM NaCl, 1∶1 fit): 3.1±0.4 ^b M^−1 × 10^7; ΔG (Gibb's free energy of binding) (2-AP labeled RRE-IIB RNA; ΔG = -RTlnKa, fluorescence Ka): -10.2 ± 0.1 kcal/mol
3 | DRRRRGSRPSGAERRDRRAAAA [R15D] | 1.5 | 1.5 | -3.9 ± 0.1 kcal/mol | 2.9±0.4 | 14.2±0.2 | 7.3 ± 0.4 | -1.0 ± 0.1 | 6.2 ± 0.3 | –
